Measured values reported in PubChem BioAssay (NCI).
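Protocol summary: plate cells (96-well), add compound at 5 concentrations, incubate 48 h, interpolate endpoints linearly. GI50 is the concentration that inhibits growth by half. TGI: concentration producing complete growth inhibition.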

How the values were obtained:
Assay in all cases: NCI-60 cell line screen, 48 h
MDA-MB-231 breast = tested on: MDA-MB-231 breast
SK-MEL-28 melanoma = tested on: SK-MEL-28 melanoma
MALME-3M melanoma = tested on: MALME-3M melanoma
MCF7 breast = tested on: MCF7 breast
A498 renal = tested on: A498 renal
SK-MEL-5 melanoma = tested on: SK-MEL-5 melanoma
NCI-H522 lung = tested on: NCI-H522 lung
HL-60(TB) leukemia = tested on: HL-60(TB) leukemia
HT29 colon = tested on: HT29 colon
SNB-75 CNS = tested on: SNB-75 CNS

SMILES	TGI (MDA-MB-231 breast) [µM]	TGI (SK-MEL-28 melanoma) [µM]	TGI (MALME-3M melanoma) [µM]	TGI (MCF7 breast) [µM]	TGI (A498 renal) [µM]	TGI (SK-MEL-5 melanoma) [µM]	TGI (NCI-H522 lung) [µM]	TGI (HL-60(TB) leukemia) [µM]	TGI (HT29 colon) [µM]	TGI (SNB-75 CNS) [µM]	GI50 (SNB-75 CNS) [µM]	GI50 (A498 renal) [µM]	GI50 (SK-MEL-5 melanoma) [µM]	GI50 (HT29 colon) [µM]
CN1C(=O)C23CCCCC2CC1(c1ccccc1)S3 (configuration not stated)	> 100	> 100	> 100	> 100	> 100	> 100	> 100	> 100	> 100					
CCOC(=O)NC(=S)c1ccc(O)c2ccccc12		> 100	> 100	> 100	> 100	> 100	> 100	39.9	> 100					
COc1ccc(/C=C2/CCS(=O)(=O)c3ccc(C)cc3C2=O)cc1OC	39.1	56.5		> 100				51.5	27.6	57.2				
CCN(CC)CCNc1ccc2nnn3c4ccccc4c(=O)c1c23		16	16.1		24.2	10.3	16.4	8.59	14.2	11.9				
CCN(CC)COC(=S)S	> 100	> 100	> 100	> 100	> 100	> 100	> 94.7		> 100	> 90.2				
N#Cc1c(N)c(C#N)c2c(c1-c1ccc(Cl)cc1)COc1ccccc1-2	92.3	37.4	58.1	> 100	37.7	71.6		68.8	40.3					
C[C@]12CC/C(=N\OCCN3CCCCC3)C=C1CCC1C2CC[C@@]2(C)C1CC[C@]2(C)O (some centres not stated)	28.2	30.4	23.2	71.7	15.4	32.4	7.52		10.2	24.8				
COc1ccc2c(-c3ccc(O)cc3)c(Oc3ccc(Cl)cc3)c(=O)oc2c1	20.6	23.1	13.8	> 23.1	22.5	10.4	6.53		> 38.1	33.8				
CCN(CC)C(=S)SS(=O)(=O)c1ccccc1[N+](=O)[O-]	37.3	49.9	22.2		> 100	24.8	2.83	> 44.8	50.4	> 100				
CC(NC(NC(C)C12CC3CC(CC(C3)C1)C2)=C(C(Cl)=C(Cl)Cl)[N+](=O)[O-])C12CC3CC(CC(C3)C1)C2 (configuration not stated)	16	> 75.5	> 95.6	> 58.7	> 100	36.3	24.3		18.1	> 100				
N#CCCN(CCC#N)c1ccc(C(N=Nc2ccc(Cl)cc2)=Nc2ccc(F)cc2)cc1	> 100	> 100		> 100	> 100	> 100	> 100		> 100	> 100				
OC(c1ccccc1)C(F)(F)c1nc2ccccc2o1 (configuration not stated)	> 100	> 100		> 100	> 100	> 100		> 100	> 100	> 100				
O=C1CN(c2ccc(Cl)cc2)C(=O)CN1NCNN1CC(=O)N(c2ccc(Cl)cc2)CC1=O		> 100	> 100	> 100	> 100	> 100	> 100	> 100	> 100	> 100				
CN(C)c1ccc(C2ON=C(c3ccccc3)N2C23CC4CC(CC(C4)C2)C3)cc1 (configuration not stated)	> 10	> 10	> 10		> 10	> 10	> 10	> 10	> 10	> 10				
CCCOC1OC(CS(=O)(=O)O)C(O)C(O)C1O (configuration not stated)		> 100	> 100	> 100	> 100	> 100		> 100	> 100	> 100				
Cc1ccc(-c2cc(-c3c(C)nn(C)c(=O)c3N)[nH]n2)cc1	> 100	> 100	> 100	> 100	> 100	> 100		> 100	> 100					
O=[As](O)(O)c1ccc2nc3cc([As](=O)(O)O)ccc3nc2c1	> 100	> 100	> 100	> 100	> 100	> 100	> 100		> 100	> 100				
Cc1ccc(C2CC(c3cccc(Nc4ccncc4)c3)=NN2c2ccccc2)cc1 (configuration not stated)					5.63	3.24			5.63	2.88	1.32	1.86	1.79	2.23

SMILES	TGI (MDA-MB-231 breast) [µM]	TGI (SK-MEL-28 melanoma) [µM]	TGI (MALME-3M melanoma) [µM]	TGI (MCF7 breast) [µM]	TGI (A498 renal) [µM]	TGI (SK-MEL-5 melanoma) [µM]	TGI (NCI-H522 lung) [µM]	TGI (HL-60(TB) leukemia) [µM]	TGI (HT29 colon) [µM]	TGI (SNB-75 CNS) [µM]	GI50 (SNB-75 CNS) [µM]	GI50 (A498 renal) [µM]	GI50 (SK-MEL-5 melanoma) [µM]	GI50 (HT29 colon) [µM]
[O-][n+]1c(-c2ccccc2)c2nc3ccccc3nc2c2ccccc21		> 100	> 100		> 100	> 100	> 100		> 100	99				
COC(=O)c1c(C(=O)OC)c2c3ccccc3n(C)c2c2c1c1ccccc1n2C	> 100	> 100	> 100	> 100	> 100	> 100	> 100		> 100	> 100				
O=C(O)c1nccnc1C(=O)O		> 100	> 100			> 100	> 100	> 100	> 100	> 100				
CCOC(=O)c1[nH]c2nc(SC)nc(Nc3ccccc3Cl)c2c1N	59.3	> 100	67		55.9	32.7	53.4		47.1	38.4				
COc1cc2c(c(OC(C)=O)c1OC(C)=O)-c1ccc(SC)c(=O)cc1C(NC(C)=O)CC2 (configuration not stated)		> 100	> 100		56.7	3.46	1.2	1.34	> 44.8					
COc1ccc(N2C(=O)/C(=C\c3cccc(Oc4ccccc4)c3)SC2c2ccccc2)cc1 (configuration not stated)	> 100	> 100	> 100	> 100	> 100	> 100	58.9	> 100						
Oc1cc(CN2COc3ccccc32)c(O)cc1CNC1CCCCC1	41.8	45	38.2	42.7	49.9	35.2	27.8		52.3	38.9				
CC(=O)Oc1c2oc3cc(O)c(O)cc3c2c(OC(C)=O)c2oc3cc(O)c(O)cc3c12		41.5	> 100			38.3	35.8	13	70.9	57.6				
C=CCc1cccc(/C=N\N=C(/N)NO)c1O		> 100	70.9	9.82	> 51.6	20.7	10.6	> 21.4	> 58.5	25.9				
Cc1cc(C)n(C(=O)CSc2nnc(SCC(=O)n3nc(C)cc3C)s2)n1	> 100	> 100		> 100	> 100	> 100		> 100		> 100				
C[N+](C)([O-])Cc1cc(-c2ccccc2)ccc1O	> 100	> 100	> 100		> 100	> 100	> 100		> 100	> 100				
COc1ccc(-c2nc(-c3cnccn3)n(COCCO)n2)cc1	> 100	> 100		> 100		> 100	> 100	> 100	> 100					
CC(O[Si](c1ccccc1)(c1ccccc1)C(C)(C)C)[C@H](NC(=O)OC(C)(C)C)C(=O)O (some centres not stated)		> 100	> 100	> 100	> 100	50.8		59.8	> 100	> 100				
CC1=CC(C)(C)Nc2ccc(CSc3ccccc3)cc21	94.1	> 100	47.5	60.9	74.4	32.9	46.5		38.2	51.3				
CC(=O)N/C(=C\c1ccc(/C=C(\NC(C)=O)C2=NC3C(=O)c4ccccc4C(=O)C3N2)cc1)C1=NC2C(=O)c3ccccc3C(=O)C2N1 (configuration not stated)		> 100			> 100		> 100	> 100	> 100	76.2				
C=C1CC(COc2ccc3c(C)cc(=O)oc3c2)(c2ccccc2)OC1=O (configuration not stated)	9.07	8.37	1.9	2.71	14.1	5.49	3.37		2.96	19.2				
COc1ccc(CNC(=O)[C@H](Cc2ccc(O)cn2)NC(C)=O)cc1		> 100		> 100	> 100	> 100	> 100	> 100	> 100					
COC(=O)c1cc(C)n(CN(Cc2ccccc2)Cn2nc(C(=O)OC)cc2C)n1	> 100	> 100	> 100	> 100	> 100	> 100	> 100		> 100	> 100				
